Source: patent US20260144266A1, “METHODS OF TREATING PLANT-BASED PRODUCTS TO REDUCE MICROBE PROLIFERATION AND EXTEND SHELF LIFE” (Ascribe Bioscience Inc., priority 2022, published 2026)

Tested on: Store-bought Strawberries
Assay: Strawberry shelf-life / spoilage test after ascaroside treatment
Details: berries dipped into 100 nM water solution
Experimental: Example 1: treatment of fruit with ascarosides extends shelf-life/delays spoilage. Store-bought Strawberries were treated with ascaroside (ascr #18) by dipping the berries into a 100 nM water solution of the ascaroside or a mock solution lacking ascaroside. Five berries from each treatment group were placed in glass dishes and left uncovered on a table indoors at ambient temperature and monitored for one week. Fruit weight was measured at 0, 1, 3, 4, 5, 6, and 7 days post-treatment. The ascaroside treated berries retained approximately 25% more of their original mass than the untreated group indicating a reduced spoilage rate and potential for increased shelf life. […] Example 2: treatment of fruit with coating compositions containing ascarosides. Freshly harvested, non-coated, apples were obtained from a supermarket. These were washed and experimental coatings were applied.

Structure (SMILES): CC1OC(O[C@H](C)CCCCCCCCC(=O)O)C(O)CC1O (some centres unmarked) [ascr #18]
- fruit quality by appearance (photographs, FIG. 1b) (photographs 0, 3 and 5 days post-treatment, vs untreated fruit): maintained higher quality than the untreated fruit
- original mass retained, more than the untreated group (normalized fruit mass, FIG. 1a) (uncovered at ambient temperature, monitored for seven days, vs mock solution): approximately 25%
